Our source for the IC50 values is patent publication US6281363A, “Cyclic hydrazine derivatives” (Hoffmann-La Roche Inc., priority 1998, dated 2001).

For this test, the system named is LPS-induced TNF-α release. The test can be described thus: inhibition of LPS-induced TNF-α release from THP1 cells (TNF-α by ELISA). The test is classed as cell-based. To be noted: Homo sapiens, THP-1, LPS 2 mg/ml, 0.5 hour preincubation with compound, 3 hours at 37° C. with LPS, read-out: IC50 (concentration of test compound which brings about 50% inhibition of LPS-induced TNF-α release). The protocol:
Aliquots (200 μl) of the cell suspension were plated out on 96 well culture plates and incubated for 0.5 hour at 37° C. prior to the addition of the test compounds. The latter were dissolved in dimethyl sulphoxide (DMSO) to a stock concentration of 1.2 mM which was diluted with phosphate buffered saline/10% DMSO solution to provide test compounds in final concentrations of 10^-9 to 10^-5 M, with each concentration being tested in duplicate. The cells were incubated with the test compounds for 0.5 hour at 37° C., LPS (bacterial lipopolysaccharide) was then added to a concentration of 2 mg/ml and incubation was continued for 3 hours at 37° C. in an atmosphere containing 5% CO2 and at 95% relative humidity. After centrifugation at 260 g for 10 minutes an aliquot of each supernatant was removed and the amount of TNF-α was estimated by ELISA (R & D Systems Europe Ltd., Abingdon, England).
(In general: An ELISA detects its analyte on a solid surface through an enzyme-linked reagent.)
Consider `CC(C)C[C@@H](C(=O)NN1C(=O)CNC1=O)[C@H](C/C=C/c1ccccc1)C(=O)NO` [Compound A, (E)-2(R)-[1(S)-(Hydroxycarbamoyl)-4-phenyl-3-butenyl]-4-methyl-N-(2,5-dioxo-1-imidazolidinyl)valeramide], for which the IC50 was 280 nM. For `CC(C)C[C@@H](C(=O)NN1C(=O)CCNC1=O)[C@H](C/C=C/c1ccccc1)C(=O)NO` [Compound B, (E)-N-(Hexahydro-2,6-dioxo-1-pyrimidinyl)-2(R)-[1(S)-(hydroxycarbamoyl)-4-phenyl-3-butenyl]-4-methylvaleramide] the value was 382 nM. With `CC(C)C[C@@H](C(=O)NN1C(=O)CNC1=O)[C@H](CCCC1CCCCC1)C(=O)NO` [Compound C, 2(R)-[4-Cyclohexyl-1(S)-(hydroxycarbamoyl)butyl]-4-methyl-N-(2,5-dioxo-1-imidazolidinyl)valeramide] the figure was 242 nM; with `CC(C)C[C@@H](C(=O)NN1C(=O)NCCS1(=O)=O)[C@H](C/C=C/c1ccccc1)C(=O)NO` [Compound D, (E)-N-(Tetrahydro-3-oxo-2H-1,2,4-thiadiazin-2-yl)-2(R)-[1(S)-(hydroxycarbamoyl)-4-phenyl-3-butenyl]-4-methylvaleramide S,S-dioxide], 389 nM; with `CC(C)C[C@@H](C(=O)NN1C(=O)CNCC1=O)[C@H](CCCc1ccccc1)C(=O)NO` [Compound E, 2(R)-[1(S)-(Hydroxycarbamoyl)-4-phenylbutyl]-4-methyl-N-(2,6-dioxo-1-piperazinyl)valeramide p-toluenesulphonate], 1450 nM. With `CC(C)C[C@@H](C(=O)NN1C(=O)N[C@@H](C(C)C)C1=O)[C@H](CCCc1ccccc1)C(=O)NO` [Compound F, 2(R)-[1(S)-(Hydroxycarbamoyl)-4-phenylbutyl]-N-(4(S)-isopropyl-2,5-dioxo-1-imidazolidinyl)-4-methylvaleramide] the figure was 156 nM; with `CC[C@H](C)[C@@H]1NC(=O)N(NC(=O)[C@H](CC(C)C)[C@H](CCCc2ccccc2)C(=O)NO)C1=O` [Compound G], 147 nM.

As to `CSCC[C@@H]1NC(=O)N(NC(=O)[C@H](CC(C)C)[C@H](CCCc2ccccc2)C(=O)NO)C1=O` [Compound H, 2(R)-[1(S)-(Hydroxycarbamoyl)-4-phenylbutyl]-4-methyl-N-[4(S)-[2-(methylthio)ethyl]-2,5-dioxo-1-imidazolidinyl]valeramide], the IC50 stood at 234 nM.

For the compound `CC(C)C[C@@H](C(=O)NN1C(=O)N[C@@H](CO)C1=O)[C@H](CCCc1ccccc1)C(=O)NO` [Compound I, 2(R)-[1(S)-(Hydroxycarbamoyl)-4-phenylbutyl]-N-[4(S)-(hydroxymethyl)-2,5-dioxo-1-imidazolidinyl]-4-methylvaleramide], the IC50 came out at 387 nM. In the case of `CC(C)C[C@@H](C(=O)NN1C(=O)[C@H](C(C)C)NC1=S)[C@H](CCCc1ccccc1)C(=O)NO` [Compound J, 2(R)-[1(S)-(Hydroxycarbamoyl)-4-phenylbutyl]-N-(4(S)-isopropyl-5-oxo-2-thioxo-1-imidazolidinyl)-4-methylvaleramide], the IC50 worked out at 597 nM. For `CC[C@H](C)[C@@H]1NC(=O)N(NC(=O)[C@H](CC(C)C)[C@H](C/C=C/c2ccccc2)C(=O)NO)C1=O` [Compound K, (E)-2(R)-[1(S)-(Hydroxycarbamoyl)-4-phenyl-3-butenyl]-N-[4(S)-(1(S)-methylpropyl)-2,5-dioxo-1-imidazolidinyl]-4-methylvaleramide] the value was 162 nM. For `CC(C)C[C@@H](C(=O)NN1C(=O)N[C@@H](CO)C1=O)[C@H](C/C=C/c1ccccc1)C(=O)NO` [Compound L, (E)-2(R)-[1(S)-(Hydroxycarbamoyl)-4-phenyl-3-butenyl]-N-[4(S)-(hydroxymethyl)-2,5-dioxo-1-imidazolidinyl]-4-methylvaleramide] the value was 302 nM. For `CC(C)C[C@@H](C(=O)NN1C(=O)NC2(CCN(C(=O)OCc3ccccc3)CC2)C1=O)[C@H](CCCc1ccccc1)C(=O)NO` [Compound M, Benzyl 3-[2(R)-[1(S)-(hydroxycarbamoyl)-4-phenylbutyl]-4-methylvaleramido]-2,4-dioxo-1,3,8-triazaspiro[4,5]decane-8-carboxylate] the value was 620 nM. As to `CC(C)C[C@@H](C(=O)Nn1c(=O)[nH]c2ccsc2c1=O)[C@H](CCCc1ccccc1)C(=O)NO` [Compound N, N-(1,2,3,4-Tetrahydro-2,4-dioxothieno[3,2-d]pyrimidin-3-yl)-2(R)-[1(S)-(hydroxycarbamoyl)-4-phenylbutyl]-4-methylvaleramide], the IC50 is 172 nM. With `CC(C)C[C@@H](C(=O)Nn1c(=O)[nH]c2cscc2c1=O)[C@H](CCCc1ccccc1)C(=O)NO` [Compound O, N-(1,2,3,4-Tetrahydro-2,4-dioxothieno[3,4-d]pyrimidin-3-yl)-2(R)-[1(S)-(hydroxycarbamoyl)-4-phenylbutyl]-4-methylvaleramide] the figure was 177 nM; with `COC[C@@H]1NC(=O)N(NC(=O)[C@H](CC(C)C)[C@H](CCCc2ccccc2)C(=O)NO)C1=O` [Compound P], 346 nM; with `CC(C)C[C@@H](C(=O)NN1C(=O)CNC1=O)[C@H](CCCc1ccccc1)C(=O)NO` [Compound Q, 2(R)-[1(S)-(Hydroxycarbamoyl)-4-phenylbutyl]-4-methyl-N-(2,5-dioxo-1-imidazolidinyl)valeramide], 234 nM. With `CC(=O)N1CCC2(CC1)NC(=O)N(NC(=O)[C@H](CC(C)C)[C@H](CCCc1ccccc1)C(=O)NO)C2=O` [Compound R, 1-(8-Acetyl-2,4-dioxo-1,3,8-triazaspiro[4. 5]decan-3-yl)-2(R)-[1(S)-(hydroxycarbamoyl)-4-phenylbutyl]-4-methylvaleramide], the IC50 is 481 nM.

Turning to `CC(C)C[C@@H](C(=O)NN1C(=O)CNC1=O)[C@H](Cc1ccc(-c2ccccc2)cc1)C(=O)NO` [Compound S, 2(R)-[2-(4-Biphenylyl)-1(S)-(hydroxycarbamoyl)ethyl]-N-(2,5-dioxo-1-imidazolidinyl)-4-methylvaleramide], the IC50 stood at 308 nM.
